Read-outs that look alike come from different tables or passages of the source.
Tested on: HCV replicon
Test: HCV replicon replication assay (NPT ELISA)
Assay type: cell-based
Conditions: Hepatitis C virus
Protocol: Compounds claimed herein are tested for the ability to inhibit viral replication of the Hepatitis C replicon in cultured cells in which the HCV replicon construct has been incorporated. The HCV replicon system was described by Bartenschlager, et. al (Science, 285, pp. 110-113 (1999)). The replicon system is predictive of in vivo anti-HCV activity; compounds that are active in humans uniformly evidence activity in the replicon assay.
In this assay HCV replicon containing cells are treated with different concentrations of the test compound to ascertain the ability of the test compound to suppress replication of the HCV replicon. As a positive control, HCV replicon-containing cells are treated with different concentrations of interferon alpha, a known inhibitor of HCV replication. The replicon assay system includes Neomycin Phosphotransferase (NPT) as a component of the replicon itself in order to detect the transcription of replicon gene products in the host cell. Cells in which the HCV replicon is actively replicating have high levels of NPT; the level of NPT is proportional to HCV replication. […] The NPT level of each sample is measured using a captured ELISA.
A protocol for testing compounds for the ability to inhibit viral replication of the Hepatitis C replicon cultured cells in which the replicon construct has been incorporated, follows.
The HCV replicon contains, 5′-3′, the HCV-IRES, the neomycin phosphotransferase (neo) gene, the IRES of encephalomyocarditis virus, which directs translation of HCV sequences NS3 to NS5B, and the 3′-NTR. The sequence of the HCV replicon has been deposited in GenBank (Accession no. AJ242652).
The replicon is transfected into Huh-7 cells using standard methods such as electroporation.
The equipment and materials include, but are not limited to, Huh-7 HCV replicon-containing cells, maintenance media (DMEM (Dulbecco's modified Eagle media) supplemented with 10% FBS, L-glutamine, non-essential amino acids, penicillin (100 units/ml), streptomycin (100 micrograms/ml), and 500 micrograms/ml of Geneticin (G418), screening media (DMEM supplemented with 10% FBS, L-glutamine, non-essential amino acids, penicillin (100 units/ml) and streptomycin (100 micrograms/ml)), 96 well tissue culture plates (flat bottom), 96 well plates (U bottom for drug dilution), Interferon alpha for positive control, fixation reagent (such as methanol: acetone), primary antibody (rabbit anti-NPTII), secondary antibody: Eu-N1 1, and enhancement solution.
HCV replicon-containing cells support high levels of viral RNA replicon replication when their density is suitable. Over-confluency causes decreased viral RNA replication. Therefore, cells must be kept growing in log phase in the presence of 500 micrograms/ml of G418. Generally, cells should be passed twice a week at 1: 4-6 dilution. Cell maintenance is conducted as follows:
HCV replicon-containing cells are examined under a microscope to ensure that cells growing well. Cells are rinsed once with PBS and 2 ml trypsin is added. The cell/trypsin mixture is incubated at 37° C. in a CO2 incubator for 3-5 minutes. After incubation 10 ml of complete media is added to stop the trypsinization reaction. Cells are blown gently, put into a 15 ml tube, and spun at 1200 rpm for 4 minutes. The trypsin/medium solution is removed. Medium (5 ml) is added and the cells are mixed carefully. The cells are counted.
The cells are then seeded onto 96-well plates at a density of 6000-7500 cells/100 microliters/well (6−7.5×10^5 cells/10 ml/plate). The plates are then incubated at 37° C. in a 5% CO2 incubator.
Cells are examined under a microscope approximated 24 hours after seeding and prior to adding drugs. If counting and dilution were performed correctly, cells are 60-70% confluent and nearly all cells should attach and spread evenly in the well.
HCV replicon-containing cells are rinsed with once PBS once; 2 mls of trypsin are then added. Cells are incubated at 37° C. in a 5% CO2 incubator for 3-5 minutes. […]

[1] = 72 h, Huh-7 HCV replicon-containing cells, three days, class symbols, read-out: EC50
[2] = 72 h, Huh-7 HCV replicon-containing cells, three days, numeric cells, read-out: EC50

SMILES	EC50 [1] [nM]	EC50 (Huh-7) [nM]	EC50 [2] [nM]
COC(=O)N[C@H](C(=O)N1C2CCC(C2)[C@H]1c1nc(-c2ccc(/C=C/c3ccc(-c4cnc([C@@H]5C6CCC(C6)N5C(=O)[C@@H](NC(=O)OC)C(C)C)[nH]4)cc3)cc2)c[nH]1)C(C)C (stereo partly shown) [Compound 72]	< 5		
CC(C)(C)OC(=O)N1c2ccccc2C[C@H]1c1nc(-c2ccc(-c3ccc(-c4cnc([C@@H]5Cc6ccccc6N5C(=O)OC(C)(C)C)[nH]4)cc3)cc2)c[nH]1 [Compound 27, (2S,2′S)-tert-butyl 2,2′-(5,5′-(biphenyl-4,4′-diyl)bis(1H-imidazole-5,2-diyl))diindoline-1-carboxylate]	< 50		
COC(=O)NC(C(=O)N1c2ccccc2C[C@H]1c1nc(-c2ccc(-c3ccc(-c4cnc([C@@H]5Cc6ccccc6N5C(=O)C(NC(=O)OC)C(C)C)[nH]4)cc3)cc2)c[nH]1)C(C)C (stereo partly drawn) [Compound 25, dimethyl (2R,2′R)-1,1′-((2S,2′S)-2,2′-(5,5′-(biphenyl-4,4′-diyl)bis(1H-imidazole-5,2-diyl))bis(indoline-2,1-diyl))bis(3-methyl-1-oxobutane-2,1-diyl)dicarbamate]	< 5	≤ 10000	
COC(=O)N[C@H]1CC[C@H]2CC[C@@H](c3ncc(-c4ccc(-c5ccc(-c6cnc([C@@H]7CCCN7C(=O)[C@@H](NC(=O)OC)C(C)C)[nH]6)cc5)cc4)[nH]3)N2C1=O [Compound 55]	< 50		
COC(=O)N[C@H](C(=O)N1CC=CC1c1nc(-c2ccc(-c3ccc(-c4c[nH]c([C@@H]5C=CCN5C(=O)[C@@H](NC(=O)OC)C(C)C)n4)cc3)cc2)c[nH]1)C(C)C (stereo partly drawn) [Compound 21, dimethyl (2S,2′S)-1,1′-((2R,2′R)-2,2′-(4,4′-(biphenyl-4,4′-diyl)bis(1H-imidazole-4,2-diyl))bis(1H-pyrrole-2,1(2H,5H)-diyl))bis(3-methyl-1-oxobutane-2,1-diyl)dicarbamate]	< 5		
COC(=O)N[C@H](C(=O)N1C2CC(F)C(C2)C1c1ncc(-c2ccc(-c3ccc(-c4cnc([C@@H]5CCCN5C(=O)[C@@H](NC(=O)OC)C(C)C)[nH]4)cc3)cc2)[nH]1)C(C)C (stereo partly shown) [Compound 73]	< 5		
COC(=O)N[C@H](C(=O)N1C2CCC(C2)[C@H]1c1nc(-c2ccc(-c3ccc(-c4c[nH]c([C@@H]5C6CCC(C6)N5C(=O)[C@@H](NC(=O)OC)C(C)C)n4)cc3)cc2)c[nH]1)C(C)C [Compound 24, dimethyl (2S,2′S)-1,1′-((3S,3′S)-3,3′-(4,4′-(biphenyl-4,4'-diyl)bis(1H-imidazole-4,2-diyl))bis(2-azabicyclo[2.2.1]heptane-3,2-diyl))bis(3-methyl-1-oxobutane-2,1-diyl)dicarbamate]	< 5		
CCCS(=O)(=O)N1CCN(Cc2ccc(C(=O)Nc3ccc(-c4ccc(-c5c[nH]c([C@@H]6CCCN6C(=O)[C@@H](NC(=O)OC)C(C)C)n5)cc4)cc3)cc2)CC1 [Compound 22, methyl (S)-3-methyl-1-oxo-1-((S)-2-(4-(4′-(4-((4-(propylsulfonyl)piperazin-1-yl)methyl)benzamido)biphenyl-4-yl)-1H-imidazol-2-yl)pyrrolidin-1-yl)butan-2-ylcarbamate]	< 5		
COC(=O)NC(C(=O)N1C2CCC(CC2)C1c1ncc(-c2ccc(-c3ccc(-c4c[nH]c([C@@H]5C6CCC(CC6)N5C(=O)C(NC(=O)OC)C(C)C)n4)cc3)cc2)[nH]1)C(C)C (stereo partly shown) [Compound 51]	< 5		
COC(=O)N[C@H](C(=O)N1CCC[C@H]1C1=NC(c2ccc(-c3ccc4[nH]c([C@@H]5C6CCC(C6)N5C(=O)[C@@H](NC(=O)OC)C(C)C)nc4c3)cc2)CN1)C(C)C (stereo partly shown) [Compound 65]	< 5		
COC(=O)N[C@H](C(=O)N1CCC[C@H]1c1ncc(-c2ccc(-c3ccc(-c4c[nH]c([C@@H]5C6CC([C@@H](O)[C@H]6O)N5C(=O)[C@@H](NC(=O)OC)C(C)C)n4)cc3)cc2)[nH]1)C(C)C (stereo partly shown) [Compound 46]	< 50		
COC(=O)N[C@H](C(=O)N1CCCCCC1c1nc(-c2ccc(-c3ccc(-c4c[nH]c(C5CCCCCN5C(=O)[C@@H](NC(=O)OC)C(C)C)n4)cc3)cc2)c[nH]1)C(C)C (stereo partly drawn) [Compound 61, dimethyl (2S,2′S)-1,1′-(2,2′-(4,4′-(biphenyl-4,4′-diyl)bis(1H-imidazole-4,2-diyl))bis(azepane-2,1-diyl))bis(3-methyl-1-oxobutane-2,1-diyl)dicarbamate]	< 50		
COC(=O)N[C@H](C(=O)N1CCC[C@H]1c1ncc(-c2cc3cc(-c4ccc(-c5cnc([C@@H]6C7CCC(C7)N6C(=O)[C@@H](NC(=O)OC)C(C)C)[nH]5)cc4)ccc3o2)[nH]1)C(C)C (stereo partly shown) [Compound 71]	< 5		
COC(=O)N[C@H](C(=O)N1C2CCC(C2)C1c1ncc(-c2ccc(-c3ccc(-c4cnc([C@@H]5CCCN5C(=O)[C@@H](NC(=O)OC)C(C)C)[nH]4)cc3)cc2)[nH]1)C(C)C (stereo partly shown) [Compound 57]	< 5		
COC(=O)N[C@H](C(=O)N1CCCCC1c1nc(-c2ccc(-c3ccc(-c4c[nH]c(C5C6CCC(C6)N5C(=O)[C@@H](NC(=O)OC)C(C)C)n4)cc3)cc2)c[nH]1)C(C)C (stereo partly shown) [Compound 49]	< 5		
COC(=O)N[C@H](C(=O)N1CCCC[C@H]1c1nc(-c2ccc(-c3ccc(-c4c[nH]c([C@@H]5CCCN5C(=O)[C@@H](NC(=O)OC)C(C)C)n4)cc3)cc2)c[nH]1)C(C)C [Compound 48]	< 5		
CNC(=O)C[C@H](C(=O)N1C2CCC(C2)[C@H]1c1nc(-c2ccc(-c3ccc(-c4cnc([C@@H]5C6CCC(C6)N5C(=O)[C@@H](CC(=O)NC)C(C)C)[nH]4)cc3)cc2)c[nH]1)C(C)C (stereo partly drawn) [Compound 38, (3S,3′S)-3,3′-(3S,3′S)-3,3′-(4,4′-(biphenyl-4,4′-diyl)bis(1H-imidazole-4,2-diyl))bis(2-azabicyclo[2.2.1]heptane-3,2-diyl)bis(oxomethylene)bis(N,4-dimethylpentanamide)]		≤ 10000	> 1
COC(=O)N[C@H](C(=O)N1C2CCC(C2)[C@H]1c1nc(-c2ccc3c(c2)Cc2cc(-c4c[nH]c([C@@H]5C6CCC(C6)N5C(=O)[C@@H](NC(=O)OC)C(C)C)n4)ccc2-3)c[nH]1)C(C)C [Compound 75]	< 5		
COC(=O)N[C@H](C(=O)N1C2CCC(C2)C1c1ncc(-c2ccc(-c3ccc(-c4cnc(C5C6CCC(C6)N5C(=O)[C@@H](NC(=O)OC)C(C)C)[nH]4)cc3)cc2)[nH]1)C(C)C (stereo partly drawn) [Compound 56, dimethyl (2S,2′S)-1,1′-(3,3′-(5,5′-(biphenyl-4,4′-diyl)bis(1H-imidazole-5,2-diyl))bis(2-azabicyclo[2.2.1]heptane-3,2-diyl))bis(3-methyl-1-oxobutane-2,1-diyl)dicarbamate]	< 5		
COC(=O)NC(C(=O)N1C2CCC(C2)C1c1nc2ccc(-c3ccc4[nH]c(C5C6CCC(C6)N5C(=O)[C@@H](NC(=O)OC)C(C)C)nc4c3)cc2[nH]1)C(C)C (stereo partly shown) [Compound 64]			619
COC(=O)N[C@H](C(=O)N1CCC[C@H]1c1ncc(-c2ccc(-c3ccc4oc(-c5cnc([C@@H]6C7CCC(C7)N6C(=O)[C@@H](NC(=O)OC)C(C)C)[nH]5)cc4c3)cc2)[nH]1)C(C)C (stereo partly shown) [Compound 70]	< 5		
COC(=O)N[C@H](C(=O)N1CCc2ccc(NC(=O)c3ccc(-c4ccc(-c5cnc([C@@H]6CCCN6C(=O)[C@@H](NC(=O)OC)C(C)C)[nH]5)cc4)cc3)cc21)C(C)C [Compound 41]	< 5		
CC(=O)N[C@H](C(=O)N1CC=CC1c1nc(-c2ccc(-c3ccc(-c4c[nH]c(C5C=CCN5C(=O)[C@@H](NC(C)=O)C(C)C)n4)cc3)cc2)c[nH]1)C(C)C (stereo partly drawn) [Compound 28, N,N′-(2S,2′S)-1,1′-((2R,2′R)-2,2′-(4,4′-(biphenyl-4,4′-diyl)bis(1H-imidazole-4,2-diyl))bis(1H-pyrrole-2,1(2H,5H)-diyl))bis(3-methyl-1-oxobutane-2,1-diyl)diacetamide]	< 50		

Reference: patent US9125904B1, “Biphenyl imidazoles and related compounds useful for treating HCV infections” (ACHILLION PHARMACEUTICALS, INC., priority 2010, dated 2015)
